Laboratory results reported in patent US10138242B2, “Pyrazolopyridine derivatives and their use in therapy” (HELMHOLTZ ZENTRUM MUENCHEN—DEUTSCHES FORSCHUNGSZENTRUM FUER …, priority 2015, dated 2018).

Molecular target: PEX5-PEX14 complex (biotin-coupled PEX5 peptide, His-tagged T. brucei PEX14) (Trypanosoma brucei brucei, UniProt Q38CL4)
Test: biochemical
Format: binding
Details: 30 nM PEX5, 30 nM PEX14; quadruplicate; read-out: AlphaScreen EC50 [μM] (±SD)
From the text: The assay uses two types of beads: donor beads are coupled with streptavidin, and acceptor beads are coupled with an anti His-tag antibody. Upon excitation with light of a wavelength of 680 nm the donor beads produce reactive oxygen species that travel in solution only for a limited distance. If the acceptor beads are within that travel distance, it will absorb the reactive oxygen and emit light in the range of 520-620 nm. […] Thus, PEX5-PEX14 complex dissociation by a ligand caused decrease in light emission as the donor and acceptor beads were separated. Typically, we used 30 nM PEX5, 30 nM PEX14 and bead concentrations of 5 μg/mL. The PEX5-PEX14 complex was incubated with varying concentrations of inhibitor for 1 hour. Next, the beads were added and the system allowed to equilibrate for another hour. The raw data were fitted to four parameter sigmoidal curves by Origin software and EC50 values calculated. Each measurement was performed in quadruplicate and every experiment was accompanied with blank and reference samples (using non-biotynylated PEX5 peptide as a binding competitor).

PEX5-PEX14 complex (biotin-coupled PEX5 peptide, His-tagged T. brucei PEX14), sequence (Q38CL4 1-366, one chain of several): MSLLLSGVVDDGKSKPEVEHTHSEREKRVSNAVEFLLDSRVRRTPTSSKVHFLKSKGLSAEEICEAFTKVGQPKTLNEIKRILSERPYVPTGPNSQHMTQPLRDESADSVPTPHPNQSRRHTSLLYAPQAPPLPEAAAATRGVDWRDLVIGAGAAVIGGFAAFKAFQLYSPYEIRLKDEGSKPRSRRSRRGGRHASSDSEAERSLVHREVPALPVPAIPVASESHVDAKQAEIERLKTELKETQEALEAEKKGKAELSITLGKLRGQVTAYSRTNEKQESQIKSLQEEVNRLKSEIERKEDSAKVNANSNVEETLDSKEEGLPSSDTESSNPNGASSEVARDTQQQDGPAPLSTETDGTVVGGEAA

Q: Which EC50 does the source give for Cc1ccc(CCN2CCc3c(c(C(=O)NCc4cccc5ccccc45)nn3CCO)C2)cc1 [Compound 118] here?
A: Its EC50 is 632 µM.

Q: With O=C(NCc1ccccc1)c1nn(CCO)c2c1CN(Cc1ccc3c(c1)OC=CO3)CC2 [Compound 68] as the compound, how does the EC50 read?
A: The EC50 was 159 µM.

Q: For Cc1ccccc1-c1ccc(CN2CCc3c(c(C(=O)NCc4ccccc4)nn3CCO)C2)cc1 [Compound 80], which EC50 is on record?
A: The EC50 was 45.9 µM.

Q: How did the EC50 turn out when Cn1nc(C(=O)NCc2ccccc2)c2c1CCN(Cc1noc3c1CCCC3)C2 [Compound 70] was run?
A: The EC50 was 9.69 µM.

Q: With CC(=O)c1ccc(CN2CCc3c(c(C(=O)NCc4ccccc4)nn3CCO)C2)cc1 [Compound 29] as the compound, how does the EC50 read?
A: The EC50 was 222 µM.

Q: How did the EC50 turn out when C=CCn1nc(C(=O)NCc2ccccc2)c2c1CCN(Cc1ccc3ncccc3c1)C2 [Compound 79] was run?
A: Its EC50 is 95.4 µM.

Q: With O=C(NCc1ccccc1)c1nn(CCO)c2c1CN(Cc1ccccc1C(F)(F)F)CC2 [Compound 72] as the compound, how does the EC50 read?
A: The EC50 was 223 µM.

Q: Which EC50 does the source give for COC(=O)c1ccc2c(CN3CCc4c(c(C(=O)NCc5cccc6ccccc56)nn4CCO)C3)c[nH]c2c1 [Compound 108] here?
A: The EC50 was 38.7 µM.

Q: Which EC50 does the source give for CC(NC(=O)c1nn(CCO)c2c1CN(Cc1cnn(-c3ccccc3)c1)CC2)c1ccccc1 (centres unmarked) [Compound 65] here?
A: Its EC50 is 112 µM.

Q: Which EC50 does the source give for CC(NC(=O)c1nn(CCO)c2c1CN(C(=O)c1ncc3sccn13)CC2)c1ccccc1 (centres unmarked) [Compound 87] here?
A: Its EC50 is 230 µM.

Q: How did the EC50 turn out when O=C(NCc1cccc2ccccc12)c1nn(CCO)c2c1CN(CCc1ccccc1)CC2 [Compound 116] was run?
A: The EC50 was 230 µM.

Q: Which EC50 does the source give for CC(NC(=O)c1nn(CCO)c2c1CN(CC1Cc3ccccc3CN1C)CC2)c1ccccc1 (centres unmarked) [Compound 86] here?
A: The EC50 was 169 µM.

Q: With O=C(NCc1ccccc1)c1nn(CCO)c2c1CN(Cc1cccn1-c1ccccn1)CC2 [Compound 83] as the compound, how does the EC50 read?
A: Its EC50 is 132 µM.

Q: Which EC50 does the source give for CCc1ccc(CN2CCc3c(c(C(=O)NCc4ccccc4)nn3CCO)C2)cc1 [Compound 71] here?
A: The EC50 was 150 µM.

Q: How did the EC50 turn out when CCc1ccc(CN2CCc3c(c(C(=O)NCc4ccccc4)nn3CCO)C2)cc1 [Compound 23] was run?
A: The EC50 was 133 µM.

Q: Which EC50 does the source give for COc1cc(CN2CCc3c(c(C(=O)NCc4ccccc4)nn3CCO)C2)cc2c1OCO2 [Compound 75] here?
A: The EC50 was 94.9 µM.

Q: With O=C(NCc1ccccc1)c1nn(CCO)c2c1CN(Cc1cnn(-c3ccccc3)c1)CC2 [Compound 82] as the compound, how does the EC50 read?
A: The EC50 was 149 µM.

Q: With Cc1nc2sccn2c1CN1CCc2c(c(C(=O)NCc3ccccc3)nn2CCO)C1 [Compound 63] as the compound, how does the EC50 read?
A: Its EC50 is 171 µM.

Q: Which EC50 does the source give for O=C(c1nn(Cc2ccccn2)c2c1CN(Cc1ccccc1)CC2)N1CCc2ccccc2C1 [Compound 67] here?
A: The EC50 was 74.3 µM.

Q: For Cn1nc(C(=O)NCc2ccc3ccccc3c2)c2c1CCN(Cc1c[nH]c3ccccc13)C2 [Compound 31], which EC50 is on record?
A: Its EC50 is 35.2 µM.

Q: COC(=O)c1cccc2c(CN3CCc4c(c(C(=O)NCc5ccccc5)nn4CCO)C3)c[nH]c12 [Compound 28] was tested. Which EC50 did it give?
A: The EC50 was 155 µM.

Q: How did the EC50 turn out when O=C(NCc1cccc2ccccc12)c1nn(CCO)c2c1CN(Cc1c[nH]c3c(C(=O)O)cccc13)CC2 [Compound 117] was run?
A: The EC50 was 391 µM.

Q: For O=C(NCc1ccccc1)c1nn(CCO)c2c1CN(Cc1cccc(OC(F)F)c1)CC2 [Compound 76], which EC50 is on record?
A: Its EC50 is 148 µM.

Q: For Cn1nc(C(=O)NCc2cccc3ccccc23)c2c1CCN(Cc1cccc3ccccc13)C2 [Compound 33], which EC50 is on record?
A: Its EC50 is 41.8 µM.

Q: For O=C(NCc1ccccc1)c1nn(CCO)c2c1CN(CC(c1ccccc1)c1ccccc1)CC2 [Compound 81], which EC50 is on record?
A: The EC50 was 74.9 µM.

Q: Which EC50 does the source give for O=C(CC1CC1)N1CCc2c(c(C(=O)N3CCc4ccccc4C3)nn2Cc2ccccn2)C1 [Compound 73] here?
A: Its EC50 is 220 µM.

Q: O=C(NCc1ccccc1)c1nn(CCO)c2c1CN(CC1=CC(=O)C3C=C(Cl)C=CC3O1)CC2 (centres unmarked) [Compound 64] was tested. Which EC50 did it give?
A: Its EC50 is 132 µM.

Q: For O=C(NCc1ccccc1)c1nn(CCO)c2c1CN(Cc1ccccc1-c1ccco1)CC2 [Compound 74], which EC50 is on record?
A: Its EC50 is 78.3 µM.

Q: Which EC50 does the source give for O=C(NCc1ccccc1)c1nn(CCO)c2c1CN(Cc1ccc(-c3ccccc3)cc1)CC2 [Compound 78] here?
A: The EC50 was 68.8 µM.

Q: O=C(NCc1cccc2ccccc12)c1nn(CCO)c2c1CN(Cc1c[nH]c3cc(OCc4ccccc4)ccc13)CC2 [Compound 113] was tested. Which EC50 did it give?
A: The EC50 was 72.1 µM.

Q: For CC(NC(=O)c1nn(CCO)c2c1CN(Cc1cccc3c1OCO3)CC2)c1ccccc1 (centres unmarked) [Compound 69], which EC50 is on record?
A: The EC50 was 151 µM.

Q: Which EC50 does the source give for CC(NC(=O)c1nn(CCO)c2c1CN(Cc1ccc3ccoc3c1)CC2)c1ccccc1 (centres unmarked) [Compound 66] here?
A: Its EC50 is 147 µM.
